Data on 16 compounds can be found in ChEMBL document CHEMBL1135313, “Bromotyrosine-derived natural and synthetic products as inhibitors of mycothiol-S-conjugate amidase” (Bioorg Med Chem Lett, 2002).

The target in this assay is T1, Mycothiol S-conjugate amidase (Mycobacterium tuberculosis, UniProt P9WJN1).
T1 sequence (P9WJN1 whole entry): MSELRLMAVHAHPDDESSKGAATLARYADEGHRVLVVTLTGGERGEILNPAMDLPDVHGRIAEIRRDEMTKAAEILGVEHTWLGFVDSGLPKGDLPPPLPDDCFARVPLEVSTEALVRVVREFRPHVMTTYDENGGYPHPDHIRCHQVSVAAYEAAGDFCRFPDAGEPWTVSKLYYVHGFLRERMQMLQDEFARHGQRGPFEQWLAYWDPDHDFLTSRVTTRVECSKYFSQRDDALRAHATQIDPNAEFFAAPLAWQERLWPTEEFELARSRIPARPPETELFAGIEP
Description: Inhibition of Mycothiol -S-conjugate amidase (MCA) from mycobacterium tuberculosis.
The compound `O=C(NCCSSc1ccc(F)cc1)/C(Cc1cc(F)cc(F)c1)=N\O` registered an IC50 of 2720 µM. Take `O=C(NCCSSc1ccc(F)cc1)/C(Cc1ccc(O)c(Cl)c1)=N\O`: the IC50 was 37 µM. On to `Nc1ccc(SSCCNC(=O)/C(Cc2cccc(Br)c2)=N\O)cc1`, for which the half-maximal inhibitory concentration (IC50) came to 185 µM. For `Nc1ccc(SSCCNC(=O)/C(Cc2cc(F)cc(F)c2)=N\O)cc1`, it took 450 µM to reach half-maximal inhibition (IC50). The compound `N=C(N)CCCCNC(=O)/C(Cc1cc(Br)c(OCCCN)c(Br)c1)=N/O` returned an IC50 of 2.8 µM. As for `CC(=O)N[C@H](CS)C(=O)NC1C(OC2C(O)C(O)C(O)C(O)C2O)OC(CO)C(O)C1O` (stereo partly specified), the figure is approximately 1 µM. As for `Cc1cccc(C)c1SSCCNC(=O)/C(Cc1cccc(Br)c1)=N/O`, the figure is 65 µM. `Nc1ccc(SSCCNC(=O)/C(Cc2ccc(O)c(Cl)c2)=N\O)cc1` displayed an IC50 of 35 µM.

Compound `O=C(NCCSSc1ccc(F)cc1)/C(Cc1cccc(Br)c1)=N\O` returned an IC50 of 90 µM.

On to `NCCCOc1c(Br)cc(C/C(=N\O)C(=O)NCCc2c[nH]c(N)n2)cc1Br`, for which the IC50 is 36 µM. Under `COC1=C(Br)C[C@]2(OC=C1Br)ON=C(C(=O)NCCOc1c(Br)cc(CCN)cc1Br)[C@@H]2O` stands 20 µM; under `COC1=C(Br)C[C@]2(C=C1Br)CC(C(=O)NCCc1c[nH]c(N)n1)=NO2`, 100 µM.

Turning to `O=C(NCCSSCCNC(=O)/C(Cc1ccc(O)c(Br)c1)=N/O)/C(Cc1ccc(O)c(Br)c1)=N/O` [PSAMMAPLIN A], it took 2.8 µM to reach half-maximal inhibition (IC50). For `COC1=C(Br)C[C@]2(OC=C1Br)ON=C(C(=O)NCCOc1c(Br)cc(C(O)CN)cc1Br)[C@@H]2O` (stereo partly specified), the half-maximal inhibitory concentration (IC50) is 26 µM. `COC1=C(Br)[C@@H](O)[C@]2(C=C1Br)CC(C(=O)NCCc1[nH]c(N)nc1-c1cc(O)c3ncc(O)c(O)c3c1O)=NO2` showed a half-inhibitory concentration (IC50) of 2 µM. Compound `CC(=O)N[C@H](CSCc1c(C)c(=O)n2c(=O)c(C)c(C)n12)C(=O)NC1C(OC2C(O)C(O)C(O)C(O)C2O)OC(CO)C(O)C1O` (stereo partly specified) [MYCOTHIOL BIMANE] yielded a 50% inhibitory concentration (IC50) of approximately 1 µM.
